Laboratory results reported in US20250313653A1, “GUEST/HOST INCLUSION COMPLEXES CONTAINING S-NITROSOGLUTATHIONE AND METHODS OF USE THEREOF” (VIRGINIA COMMONWEALTH UNIVERSITY, priority 2022, published 2025).

Experiment: GSNO decomposition in the presence of biologically relevant reactants (cysteine, L-ascorbic acid, BSA)
Assay type: physicochemical
Conditions: for GSNO left after 24 h of storage: 0.1 M GSNO with 20 mg/mL BSA, 37° C.
Procedure: GSNO was synthesized by nitrosation of reduced L-glutathione in acidified nitrite as previously reported.^52 After collecting GSNO precipitates and washing them using cold water and acetone, GSNO powder was vacuum dried for 4 h and stored at −20° C. GSNO powders were dissolved in phosphate buffer (PB) containing the same mole of Na2HPO4 before the pH adjustment. For example, the formal concentration of Na2HPO4 is 0.1 M when the GSNO concentration is 0.1 M. One hundred μM EDTA was always added to each solution before the solution pH was finally adjusted to 7.4 via NaOH. EDTA is a chelating agent to mask Cu^2+, a S-nitrosothiol catalyst that may exist in solvents and chemicals as an impurity.^53 For solutions with reactive agents, BSA, ascorbic acid, or cysteine was added before the pH adjustment. To prepare GSNO-CD solutions, appropriate amounts of CD powders were dissolved into the GSNO solutions prior to the pH adjustment.
Aqueous GSNO solutions were contained in 1.5 mL disposable polystyrene cuvettes. The cuvette was caped and further sealed with parafilm. The concentrations of GSNO during storage at 37° C. or 25° C. in the dark were monitored by a UV-vis spectrophotometer (Go Direct® Fluorescence/UV-VIS Spectrophotometer) at a wavelength of 545 nm. A 4 W LED white light was used as the light source for the photodecomposition experiment at room temperature. The distance between the light source and the cuvettes was approximately 10 cm. All GSNO decomposition experiments were triplicated, and the GSNO concentration was expressed as mean±standard deviation.

N[C@@H](CCC(=O)N[C@@H](CSN=O)C(=O)NCC(=O)O)C(=O)O [GSNO, S-nitrosoglutathione]
GSNO lifetime (0.1 M GSNO in 0.1 M PB pH 7.4 with 10 mM cysteine or L-ascorbic acid, without αCD): 2 to 3 days | effect on GSNO decomposition rate (0.1 M GSNO with 10 mM cysteine or L-ascorbic acid, addition of 0.1 M αCD, 4-day experiments): remarkably reduces the decomposition rate | GSNO left after 24 h of storage (control group without αCD): 21% | GSNO left after 24 h of storage (in the presence of 0.1 M αCD): 41%
